From PMC5062114, “Dual-targeting anti-angiogenic cyclic peptides as potential drug leads for cancer therapy” (Scientific Reports, 2016)

Key:
HUVEC migration = assay: VEGF-mediated HUVEC transwell migration assay; format: cell-based, human; conditions: Homo sapiens, HUVEC; 10 μM, 0.3 nM VEGF
Experimental: Figure 5 Cell migration on VEGF-mediated HUVECs. The percentage of HUVEC migration was analyzed using Prism Version 6 (GraphPad). (A–T) VEGF was used as a positive control with 100% HUVEC migration. All peptides were tested at concentrations ranging from 0.001–50 μM except for cilengitide and octreotide, which were tested in 10-fold dilutions from 10 μM. Peptides were added in the presence of 0.3 nM VEGF (bottom chamber). Data are shown as mean ± SD (n ≥ 3). Data were normalized to the mean VEGF control. P-values are represented as follows: ****p ≤ 0.0001, ***p ≤ 0.001, **p ≤ 0.01, and *p ≤ 0.05.
A cell migration assay was performed as described by Chan et al.[45] HUVECs between passages three and ten were used. Briefly, initial peptide concentrations of 10–500 μM were prepared for all peptides except SFTI-SST-01, MCo-SST-01, SFTI-SST-02, MCo-SST-02, SFTI-PEDF, MCo-PEDF (0.01–500 μM), cilengitide, octreotide, and MCoAA-02 (1 × 10^−7 M–100 μM). To the apical well, 100 μL of 1 × 10^5 cells/well were seeded and 600 μL of medium supplemented with or without 0.3 nM VEGF (Sigma, catalogue no. V7259) was added to the basolateral well. The well containing cells with 0.1% FBS/EGM-2 basal medium was used as a negative control, and the well containing cells with 0.3 nM VEGF was used as a positive control. All peptides were stimulated with 0.3 nM VEGF. Experiments were done in triplicate. […]

HUVEC = assay: cells; conditions: Homo sapiens, HUVEC, 48 h, read-out: IC50 ± S.D.; 48 hours, HUVEC
Experimental: (§1) HUVECs (human umbilical vein endothelial cells) were cultured in EGM™-2 BulletKit™ supplemented with SingleQuots™ (supplements: growth factors, cytokines, antibiotics; Lonza) and 10% FBS (catalog no. FFBS-500; Scientifix). Both HT-29 and MCF-7 cells were cultured in 10% FBS/DMEM (Dulbecco’s Modified Eagle Medium) with 1% penicillin–streptomycin (5000 U/mL; Life Technologies), whereas PC3 cells (prostate cancer cells) were cultured in 10% FBS/RPMI (Roswell Park Memorial Institute) 1640 with 1% penicillin–streptomycin (5000 U/mL; Life Technologies). All cells were maintained at 37 °C in 5% CO2.
(§2) Cell cytotoxicity and proliferation assays were performed using similar methods to those described by Chan et al.[45]. All cells were maintained using the media conditions described above, and passages two to ten were used for all cell lines. For all cell lines, 5.0 × 10^3 cells/well (100 μL) and 1.5 × 10^3 cells/well (100 μL) were used for cell cytotoxicity and cell proliferation assays, respectively. All peptides (10 μL, at final concentrations ranging from 0.05–100 μM) and drugs, which included cilengitide, octreotide and sunitinib (at final concentrations ranging from 0.00001–100 μM), were used in both assays. Triton X-100 (0.1% (v/v); 10 μL) was used as a positive control. Cells were treated with fresh media the day after plating, before the addition of peptides, followed by a subsequent 2-h and 48-h incubation for cell cytotoxicity and cell proliferation, respectively. After different incubation periods, 3-(4, 5-dimethylthiazolyl-2)-2,5-diphenyltetrazolium bromide (MTT) (10 μL; 5 mg/mL in PBS) was added, and cells were incubated for a further 4 h. The supernatant was then removed and 100 μL DMSO added to solubilize formazan salts. Experiments were performed in triplicate. Cell numbers were recorded at 600 nm. All data represent average mean ± SD.

PC3 = assay: cells; conditions: Homo sapiens, PC-3, 48 h, read-out: IC50 ± S.D.; 48 hours, PC3
Experimental: as §1, §2

HT-29 = assay: cells; conditions: Homo sapiens, HT-29, 48 h, read-out: IC50 ± S.D.; 48 hours, HT-29
Experimental: as §1, §2

MCF-7 = assay: cells; conditions: Homo sapiens, MCF7, 48 h, read-out: IC50 ± S.D.; 48 hours, MCF-7
Experimental: as §1, §2

IC50 (PC3): 16.2 ± 0.26 µM
IC50 (HT-29): 1.43 ± 0.24 µM
IC50 (MCF-7): 17.07 ± 0.11 µM
SMILES: CCN(CC)CCNC(=O)c1c(C)[nH]c(/C=C2\C(=O)Nc3ccc(F)cc32)c1C [sunitinib, Sunitinib malate, reference compound]
inhibition at 10 µM (HUVEC migration): 100%
IC50 (HUVEC): 19.1 ± 0.46 µM
